Values of other authors, collected in patent US12295729B2, “Apparatus and method for delivery of antimicrobial during a transdermal sampling and delivery process” (Georgetown University, priority 2015, dated 2025).

How the values were obtained:
[1] = test system: Bacillus anthracis
[2] = test system: Enterococcus faecalis
[3] = test system: Group A streptococcus
[4] = test system: Group B Streptococcus
[5] = test system: Lactobacillus casei
[6] = test system: Listeria monocytogenes
[7] = test system: Micrococcus luteus
[8] = test system: Nocardia sp.
[9] = test system: Propionibacterium acnes
[10] = test system: Staphylococcus aureus
[11] = test system: Streptococcus mutans
[12] = test system: Streptococcus pneumonia
[13] = test system: Borrelia spp.
[14] = test system: Mycobacterium bovis
[15] = test system: Mycobacterium smegmatis
[16] = test system: Achromobacter xylosoxidans
[17] = test system: Acinetobacter baumannii
[18] = test system: Aggregatibacter actinomycetemcomitans
[19] = test system: Brucella suis
[20] = test system: Burkholderia pseudomallei
[21] = test system: Burkholderia cepacia
[22] = test system: Burkholderia thailandensis
[23] = test system: Capnocytophaga spp.
[24] = test system: Escherichia coli
[25] = test system: Francisella novicida
[26] = test system: Fusobacterium nucleatum
[27] = test system: Haemophilus influenza
[28] = test system: Helicobacter pylori
[29] = test system: Klebsiella pneumonia
[30] = test system: Leptospira interrogans
[31] = test system: Mannheimia haemolytica
[32] = test system: Pasteurella multocida
[33] = test system: Porphyromonas circumdentaria
[34] = test system: Porphyromonas gingivalis
[35] = test system: Prevotella intermedia
[36] = test system: Prevotella loescheii
[37] = test system: Prevotella melaninogenica
[38] = test system: Pseudomonas aeruginosa
[39] = test system: Salmonella sp.
[40] = test system: Shigella sp.
[41] = test system: Stenotrophomonas maltophilia
[42] = test system: Tannerella forsythia
[43] = test system: Treponema denticola
[44] = test system: Treponema pallidum
[45] = test system: Yersinia pestis

Measured: bacteria killing ability

LL-37 (LLGDFFRKSKEKIGKEFKRIVQRIKDFLRNLVPRTES; Antibacterial peptide LL-37; UniProt P49913 134-170, looked up) [antimicrobial peptide; the factotum human cathelicidin peptide]
kill: all assays above
